Source: PubChem BioAssay AID330 (DTP/NCI, 2004)
Where “and” joins values, the source holds several entries; their conditions need not be identical. Equal values may be shown once. Inconclusive results and toxic doses are left out. Rule for the calls: active = survival T/C of 150% or more; inactive = T/C below 125% in these data.

Test system: P388 leukemia ip, CD2F1 mice, survival T/C
Test: NCI In Vivo Anticancer Drug Screen. Data for tumor model P388 Leukemia (intraperitoneal) in CD2F1 (CDF1) mice
Settings: endpoint: median survival time, higher = longer survival
Outline: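 Mice carrying the transplanted tumor received test compound or vehicle. Survival was recorded in each group, and the value is the treated-group measurement divided by that of the vehicle-treated control group.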

[1] = dose: 50.0 mg/kg/injection, schedule: Q01DX009 (ip), vehicle: saline
[2] = dose: 100.0 mg/kg/injection, schedule: Q01DX009 (ip), vehicle: saline
[3] = dose: 200.0 mg/kg/injection, schedule: Q01DX009 (ip), vehicle: saline
[4] = dose: 100.0 mg/kg/injection, schedule: Q01DX009 (ip), vehicle: saline with Tween-80
[5] = dose: 100.0 mg/kg/injection, schedule: Q04DX003 (ip), vehicle: saline
[6] = dose: 50.0 mg/kg/injection, schedule: Q01DX005 (ip), vehicle: Klucel (hydroxypropylcellulose) (HPC)
[7] = dose: 100.0 mg/kg/injection, schedule: Q01DX005 (ip), vehicle: Klucel (hydroxypropylcellulose) (HPC)
[8] = dose: 200.0 mg/kg/injection, schedule: Q01DX005 (ip), vehicle: Klucel (hydroxypropylcellulose) (HPC)

Measured: T/C

CNCCN1CCC(Cc2ccccc2)CC1
inactive: [1] 100 % of control | [2] 100 % of control

Cc1nc(N)c2nc(SCc3ccc(Cl)cc3)c(N)nc2n1
inactive: dose: 25.0 mg/kg/injection, schedule: Q04DX003 (ip), vehicle: saline with Tween-80 100 % of control | dose: 50.0 mg/kg/injection, schedule: Q04DX003 (ip), vehicle: saline with Tween-80 90 % of control | dose: 100.0 mg/kg/injection, schedule: Q04DX003 (ip), vehicle: saline with Tween-80 92 % of control

COc1ccc(C2COc3c(ccc(O)c3C)C2)cc1OC (configuration not stated)
inactive: dose: 60.0 mg/kg/injection, schedule: Q01DX005 (ip), vehicle: saline with Tween-80 97 % of control | dose: 120.0 mg/kg/injection, schedule: Q01DX005 (ip), vehicle: saline with Tween-80 97 % of control | dose: 240.0 mg/kg/injection, schedule: Q01DX005 (ip), vehicle: saline with Tween-80 95 % of control

Cc1ccc2c(ccc(CC(=S)[S-])[n+]2C)c1
inactive: dose: 25.0 mg/kg/injection, schedule: Q01DX009 (ip), vehicle: Klucel (hydroxypropylcellulose) (HPC) 114 % of control | dose: 50.0 mg/kg/injection, schedule: Q01DX009 (ip), vehicle: Klucel (hydroxypropylcellulose) (HPC) 120 % of control

OCC(O)C(O)C(O)/C=N\O (configuration not stated)
inactive: [1] 98 % of control | [2] 105 % of control | [3] 98 % of control

O=C(OC(c1ccccc1)(C(F)(F)F)C(F)(F)F)c1ccccc1Sc1ccccc1
inactive: [4] 95 % of control | dose: 200.0 mg/kg/injection, schedule: Q01DX009 (ip), vehicle: saline with Tween-80 90 % of control | dose: 400.0 mg/kg/injection, schedule: Q01DX009 (ip), vehicle: saline with Tween-80 95 % of control

C=C1C(=O)OC2/C=C(\COC(C)=O)CCC(OC(C)=O)C3=CC(OC3=O)C12 (configuration not stated)
inactive: dose: 1.87 mg/kg/injection, schedule: Q01DX009 (ip), vehicle: Klucel (hydroxypropylcellulose) (HPC) 95 % of control | dose: 3.75 mg/kg/injection, schedule: Q01DX009 (ip), vehicle: Klucel (hydroxypropylcellulose) (HPC) 102 % of control | dose: 7.5 mg/kg/injection, schedule: Q01DX009 (ip), vehicle: Klucel (hydroxypropylcellulose) (HPC) 96 % of control | dose: 15.0 mg/kg/injection, schedule: Q01DX009 (ip), vehicle: Klucel (hydroxypropylcellulose) (HPC) 117 % of control

CN(CCCCCC(=O)O)c1ccncc1
inactive: dose: 50.0 mg/kg/injection, schedule: Q01DX005 (ip), vehicle: saline 103 % of control | dose: 100.0 mg/kg/injection, schedule: Q01DX005 (ip), vehicle: saline 100 % of control | dose: 200.0 mg/kg/injection, schedule: Q01DX005 (ip), vehicle: saline 108 % of control

NC(=S)c1ncn(C2OC(CO)C(O)C2O)c1N (configuration not stated)
inactive: dose: 12.5 mg/kg/injection, schedule: Q01DX009 (ip), vehicle: saline 104 % of control | dose: 25.0 mg/kg/injection, schedule: Q01DX009 (ip), vehicle: saline 101 % of control | [1] 101 % of control | [2] 112 % of control | [3] 112 % of control | dose: 400.0 mg/kg/injection, schedule: Q01DX009 (ip), vehicle: saline 101 % of control

CC[N+](C)(CC)CC(C)C1NS(=O)(=O)c2ccccc21 (configuration not stated)
inactive: dose: 25.0 mg/kg/injection, schedule: Q04DX003 (ip), vehicle: saline 104 % of control | dose: 50.0 mg/kg/injection, schedule: Q04DX003 (ip), vehicle: saline 98 % of control | [5] 98 % of control and 100 % of control

O=CNNc1ccc2nnc(Cl)n2n1
inactive: [5] 101 % of control | dose: 200.0 mg/kg/injection, schedule: Q04DX003 (ip), vehicle: saline 97 % of control | dose: 400.0 mg/kg/injection, schedule: Q04DX003 (ip), vehicle: saline 93 % of control

[N-]=[N+]=NCCOCn1ccc(=O)[nH]c1=O
inactive: dose: 60.0 mg/kg/injection, schedule: Q01DX005 (ip), vehicle: saline 103 % of control | dose: 120.0 mg/kg/injection, schedule: Q01DX005 (ip), vehicle: saline 108 % of control | dose: 240.0 mg/kg/injection, schedule: Q01DX005 (ip), vehicle: saline 100 % of control

O=C(Nc1ccc(C2=NCCN2)cc1)c1ccc(C(=O)Nc2ccc(C3=NCCN3)cc2)cc1
inactive: dose: 75.0 mg/kg/injection, schedule: Q01DX010 (ip), vehicle: saline 118 % of control | dose: 112.0 mg/kg/injection, schedule: Q01DX010 (ip), vehicle: saline 100 % of control

BrN=C1C=CC(=NBr)C=C1
inactive: dose: 50.0 mg/kg/injection, schedule: Q01DX005 (ip), vehicle: saline with Tween-80 100 % of control (2×) and 106 % of control | dose: 100.0 mg/kg/injection, schedule: Q01DX005 (ip), vehicle: saline with Tween-80 101 % of control and 106 % of control and 91 % of control | dose: 200.0 mg/kg/injection, schedule: Q01DX005 (ip), vehicle: saline with Tween-80 101 % of control and 106 % of control and 120 % of control | dose: 400.0 mg/kg/injection, schedule: Q01DX005 (ip), vehicle: saline with Tween-80 89 % of control and 90 % of control

Nc1ccc(NC(=O)c2cc(Cl)cc(Cl)c2O)c(Cl)c1
inactive: dose: 50.0 mg/kg/injection, schedule: Q01DX009 (ip), vehicle: saline with Tween-80 107 % of control | [4] 114 % of control

NC1=NN(S(=O)(=O)c2ccc(Br)cc2)CC1
inactive: [6] 89 % of control | [7] 94 % of control | [8] 89 % of control

CCOC1NC(=O)C(OCC)NC1=O (configuration not stated)
inactive: [6] 96 % of control | [7] 99 % of control | [8] 97 % of control
